This passage reports RP-LC retention time results from the METLIN SMRT retention time set (Domingo-Almenara et al. 2019).

The series in a line: gradient 5% acetonitrile 3 min, to 50% in 2 min, to 85% in 15 min, held 3 min, 100 µL/min. As to conditions: column: Zorbax Extend-C18 2.1 x 50 mm; eluents: water / acetonitrile, 0.1% formic acid. The method, boiled down: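 Retention time was recorded from adduct peaks, which were picked computationally and each inspected manually. Pure standards ran in mixtures of ~100 molecules on HPLC coupled to a quadrupole time-of-flight mass spectrometer, in positive and negative ionization mode, through a Zorbax Extend-C18 column (2.1 × 50 mm, 1.8 μm) at 100 μL/min. Eluents were water and acetonitrile, each with 0.1% formic acid.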
Regarding `Cc1ccc(-n2c(N3CCCC(C(=O)NCCCOC(C)C)C3)nc3ccsc3c2=O)cc1` (centres undefined), the RP-LC retention time came to 838 s.
Then `CCSc1nnc(NC(=O)C2CCCN(Cc3nc(-c4cccs4)no3)C2)s1` (centres undefined), with 769 s.
In the case of `Cc1ccc(C(=O)N2CCC3(CC2)N=C(c2ccccc2)NO3)s1`, the RP-LC retention time was determined as 810 s.
Then `Cc1cc(C)n(Cc2c(C(=O)NCC3Cn4cccc4C(=O)N3C)noc2C)n1` (centres undefined), with 688 s; and `Cc1noc(COC2CCN(C(=O)CCc3c(C)noc3C)CC2)n1`, with 661 s.
The figure for `CCCn1c(-c2cccc(C(=O)NCc3ccccc3C(F)(F)F)c2)nc2cccnc21` is 911 s.
The figure for `CCc1cccc(NC(=O)Cn2nc3c(N(C)C4CCCCC4)nccn3c2=O)c1` is 851 s.
Regarding `COc1ccc(-c2noc(CN3C(=O)COc4ccccc43)n2)cc1OC`, the RP-LC retention time was found to be 882 s.
The figure for `Cc1ccc2c(c1)N(Cc1ccc(F)cc1)N=C(C(=O)N1CCCC1)S2(=O)=O` is 889 s.
`CCOc1ccc(-c2csc3c(=O)n(Cc4ccncc4)cnc23)cc1OCC` yielded an RP-LC retention time of 693 s.
The figure for `Cc1ccc(-c2cc3c(=O)n(Cc4noc(CN5CCC(C)CC5)n4)ccn3n2)c(C)c1` is 742 s; for `Cc1cccc(CC(=O)NCCCN2CCN(c3ccccc3)CC2)c1` it is 601 s; for `CN(C)CCCn1c(C2CC(=O)N(c3ccccc3F)C2)nc2ccccc21` (centres undefined) it is 580 s.
The figure for `COc1cc(OC)c(NC(=O)N2CC(n3cnnc3-c3ccccc3)C2)cc1Cl` is 703 s; for `O=C1C2N=NN(c3cccc(F)c3)C2C(=O)N1c1ccccc1` (centres undefined) it is 925 s; for `O=C(Cn1nc2c3ccccc3ncn2c1=O)Nc1cccc(C(F)(F)F)c1` it is 733 s.
Then `Cc1ccc(F)c(NC(=O)C2CC(=O)N(c3ccc4c(c3)CCN4C(=O)C3CC3)C2)c1` (centres undefined), with 799 s.
Compound `CCc1ccc(C(=O)N2CCC3(CC2)N=C(c2ccc(C)cc2)NO3)cc1` returned an RP-LC retention time of 933 s.
In turn, `COCCOC1CCC12CCN(C(=O)c1cn[nH]c1)CC2` (centres undefined) yielded an RP-LC retention time of 617 s.
Compound `Cc1ccc(C(=O)N2CCN(c3ccc(-c4noc(C5CC5)n4)cc3)CC2)s1` had an RP-LC retention time of 1010 s.
The figure for `CN1C(=O)[C@H]2CN(Cc3ccc(F)c(Cl)c3)C[C@H]2C1=O` is 623 s; for `CC1=C(c2ccc(C)c(C)c2)S(=O)(=O)N=C1N1CCC(NC(=O)C2CCC2)CC1` it is 853 s; for `Cc1noc(C)c1S(=O)(=O)N1CC(c2nc(Cc3cccnc3)no2)C1` it is 588 s.
The figure for `Cc1ccc2c(c1)C(=O)NC1(CCN(C(=O)c3ccccc3)CC1)N2C` is 748 s.
Then `COc1ccc(-c2nnc(COc3cccc(NC(=O)c4ccc(C)s4)c3)o2)cc1`, with 988 s; and `COc1ccc(-c2cc(C(=O)N3CCC(NC(=O)C4CCCC4)CC3)[nH]n2)cc1`, with 713 s; and `CCN(CC)CCCNC(=O)C1c2ccccc2C(=O)N(C)C1c1cccs1` (centres undefined), with 602 s.
For the compound `COc1ccc(NC(=O)N2CCc3c(c(-c4nnc(-c5ccc(F)cc5)o4)nn3C)C2)cc1OC`, the RP-LC retention time was 766 s.
Then `CC(C)(C)c1csc(-c2csc(S(=O)(=O)Nc3ccc(Br)cc3F)c2)n1`, with 1330 s; and `Cc1ccc(C)c(Cn2nnc(C(=O)O)c2-c2ccccn2)c1`, with 752 s; and `CCn1cc(C(=O)Nc2ccccc2)c2cccnc21`, with 798 s.
The figure for `O=c1n(Cc2ccccc2)nc2ccc(S(=O)(=O)N3CCOCC3)cn12` is 778 s; for `COc1cccc(CNC(=O)C2(C)CCCN(C(=O)Nc3ccc(C)c(Cl)c3)C2)c1` (centres undefined) it is 982 s; for `CCOc1ccc2ncc(S(=O)(=O)c3ccc(C)c(C)c3)c(N3CCN(CC)CC3)c2c1` it is 693 s.
`Cc1cc(C)c(C#N)c(SCC(=O)Nc2nccs2)n1` yielded an RP-LC retention time of 750 s.
The figure for `Cc1oc(-c2[nH]ncc2C(=O)N2CCCCC2)cc1S(=O)(=O)Nc1ccccc1` is 730 s; for `O=C(CSc1nc2ccccc2s1)Nc1cccn2cc(-c3ccccc3)nc12` it is 1110 s.
The figure for `CCN(CC)S(=O)(=O)N1CCC(C(=O)Nc2ccc3sc(NC(=O)C(C)C)nc3c2)CC1` is 854 s.
`COc1ccc(C(=O)NC2CCN(c3cc(-c4cccs4)[nH]n3)C2)cc1` (centres undefined) registered an RP-LC retention time of 703 s.
The figure for `CC1CCN(c2nn(CC(=O)Nc3ccc4c(c3)CCC4)c(=O)c3ccccc23)CC1` is 1250 s.
The compound `Cc1ccc(C)c(Sc2ccc(N3CCC(C(=O)NCc4ccco4)CC3)nn2)c1` displayed an RP-LC retention time of 818 s.
For the compound `COc1cccc(CNC(=O)NC2CCN(c3cc(C)cc(C)c3)C2=O)c1` (centres undefined), the RP-LC retention time worked out at 840 s.
The figure for `O=C(c1nccc2ccccc12)N1CCC(Nc2ncnc3c2CCC3)C1` (centres undefined) is 537 s; for `Cc1nnc2n1CCN(C(=O)c1n[nH]c3ccccc13)C2` it is 558 s.
`COc1ccc(Cl)cc1N1CC(c2nc(-c3ccccc3)no2)CC1=O` (centres undefined) gave an RP-LC retention time of 973 s.
For the compound `COC(=O)C1=C(C)NC(C)=C(C(=O)OCCSc2ccccc2)C1C` (centres undefined), the RP-LC retention time worked out at 1080 s.
The figure for `CN1C(=O)Cc2cc(C(=O)NCc3ccccc3Cl)ccc21` is 738 s; for `O=C(NCCc1ccc(Cl)cc1)c1nnc(-c2ccc(S(=O)(=O)N3CCCCC3)cc2)o1` it is 1110 s; for `CCCn1cc(C2=CCN(S(=O)(=O)Cc3cccc(Cl)c3)CC2)c2cccnc21` it is 1110 s.
The figure for `CCOC(=O)CC(NC(=O)NCc1ccnc(N2CCCCC2)c1)c1ccccc1` (centres undefined) is 645 s; for `Cc1ccc(-c2noc(CSc3nc4cc5c(cc4c(=O)n3-c3ccc(F)cc3)OCO5)n2)cc1` it is 1200 s.
The figure for `CCN(C(=O)Cc1csc2nc(-c3ccccc3)cn12)c1ccccc1` is 852 s; for `COc1ccccc1NC(=O)C1CCN(S(=O)(=O)c2c(C)[nH]c(C)c2C(=O)N2CCCC2)CC1` it is 693 s; for `O=C(Cc1cccc(F)c1)N1CC(N2CC(C(=O)N3CCCC3)CC2=O)C1` (centres undefined) it is 648 s.
Regarding `CC1CCN(C(=O)C2=CN(c3cccc(F)c3)c3ccccc3S2(=O)=O)CC1`, the RP-LC retention time is 908 s.
The figure for `CCC(=O)n1nc(C)c(S(=O)(=O)N2CCOCC2)c1C` is 848 s; for `COCC(C)NC(=O)c1cc2c(s1)N(CC1CC1)CCCC2` (centres undefined) it is 976 s; for `COc1cccc(CNC(=O)C2(C)CCCN(S(=O)(=O)c3ccc(F)cc3F)C2)c1` (centres undefined) it is 922 s.
The figure for `CCCNC(=O)c1cnn(-c2cc(-c3nc(CC)no3)ccn2)c1C` is 849 s; for `O=C(Nc1ccccc1NC(=O)c1ccccc1C(F)(F)F)c1ccsc1` it is 830 s.
Then `COc1cccc(-c2nnc(Cc3nc(-c4ccc(SC)cc4)no3)o2)c1`, with 1050 s; and `CCc1csc(-c2ccc(N3CCN(C(=O)c4ccsc4)CC3)nc2)n1`, with 853 s.
For `NS(=O)(=O)c1ccc(CCNC(=O)c2ccc(-n3cnnn3)cc2)cc1`, the RP-LC retention time was found to be 622 s.
In turn, `CCCc1cnc2c(c1SC(C(C)=O)C(=O)N(C)C)c(=O)n(C)c(=O)n2C` (centres undefined) gave an RP-LC retention time of 720 s.
Then `Cc1ccn2c(NC(=O)c3ccc4ccccc4c3)c(-c3ccccc3)nc2c1`, with 747 s; and `Cn1c(N2CCCC(C(=O)NCc3ccc(Cl)cc3)C2)cc(=O)n(C)c1=O` (centres undefined), with 710 s; and `CCOc1ccc(S(=O)(=O)[C@H]2CS(=O)(=O)C[C@@H]2N2CCC(C(=O)OC)CC2)cc1`, with 858 s.
In the case of `COc1cc(=O)n2c(c1C(=O)Nc1ccc(Br)cc1C)CCCC2`, the RP-LC retention time amounted to 757 s.
Then `COc1ccc(F)cc1S(=O)(=O)N1CC(F)(F)C[C@H]1CN1CCc2ccccc2C1`, with 739 s.
The figure for `CN(C)C(=O)c1cc2cnc(Nc3ccc(N4CCNCC4)cn3)nc2n1C1CCCC1` is 630 s; for `COCCN1C(=O)c2ccccc2C(C(=O)NCCc2ccccc2)C12CCCC2` (centres undefined) it is 827 s; for `COc1cc(Cn2nc(C)c3cnn(C(C)(C)C)c3c2=O)cc(OC)c1` it is 1070 s.
Consider `CC(C)n1c(=O)oc2cc(-c3noc(/C=C/c4ccccc4)n3)ccc21`, for which the RP-LC retention time is 1200 s.
Then `CCCc1noc(-c2ccc3nnc(CC(=O)NC4CCCC4)n3c2)n1`, with 922 s; and `O=C(Nc1ccc2c(c1)OCCO2)N1C[C@@H]2CN(S(=O)(=O)c3ccccc3)C[C@H](C1)O2`, with 728 s; and `COc1ccc(-c2cn3c(CC(=O)Nc4ccccc4Cl)csc3n2)cc1OC`, with 728 s.
The figure for `COc1ccc(-c2nn3c(-c4ccc5ccccc5n4)nnc3s2)cc1` is 975 s.
Then `Cc1cccc(NC(=O)c2cc(C)n3nccc3n2)c1C`, with 995 s; and `O=C(NC1CCN(c2ccccc2)C1=O)c1ccc(Br)cc1` (centres undefined), with 844 s.
